By Ki is commonly meant a measure of affinity in units of concentration, obtained from inhibition or displacement.

Molecules are shown by their SMILES.

The experiment concerns the target Human immunodeficiency virus type 1 protease (Human immunodeficiency virus 1, UniProt Q72874). In words: Potency to inhibit HIV-1 protease.

`CS(=O)(=O)c1ccc(CN2CC(Cc3ccccc3)N(C[C@@H](O)C[C@@H](Cc3ccccc3)C(=O)NC3c4ccccc4C[C@H]3O)C2=O)cc1` (stereo not given in full) came in with a Ki of 300 nM.

Molecule `C[C@]1(Cc2ccccc2)C[C@H](Cc2ccccc2)N(C[C@@H](O)C[C@@H](Cc2ccccc2)C(=O)N[C@H]2c3ccccc3C[C@H]2O)C1=O` returned a Ki of 170 nM. In turn, `O=C(NC1c2ccccc2C[C@H]1O)[C@H](Cc1ccccc1)C[C@H](O)CN1C(=O)N(Cc2ccncc2)CC1Cc1ccccc1` (stereo not given in full) gave an inhibition constant (Ki) of 190 nM.

As for `COc1ccc(CN2CC(Cc3ccccc3)N(C[C@@H](O)C[C@@H](Cc3ccccc3)C(=O)NC3c4ccccc4C[C@H]3O)C2=O)cc1` (stereo not given in full), the Ki was found to be 5.6 nM.

For `O=C(NC1c2ccccc2C[C@H]1O)[C@H](Cc1ccccc1)C[C@H](O)CN1C(=O)N(Cc2ccccc2)CC1Cc1ccccc1` (stereo not given in full), the affinity corresponds to a Ki of 1.2 nM. The same measure for `O=C(NC1c2ccccc2C[C@H]1O)[C@H](Cc1ccccc1)C[C@H](O)CN1C(=O)N(Cc2cccnc2)CC1Cc1ccccc1` (stereo not given in full): 18 nM. The same measure for `O=C(NC1c2ccccc2C[C@H]1O)[C@H](Cc1ccccc1)C[C@H](O)CN1C(=O)N(Cc2ccccn2)CC1Cc1ccccc1` (stereo not given in full): 41 nM; for `O=C(NC1c2ccccc2C[C@H]1O)[C@H](Cc1ccccc1)C[C@H](O)CN1C(=O)[C@@H](Cc2ccccc2)CC1Cc1ccccc1` (stereo not given in full): 0.06 nM; for `O=C(NC1c2ccccc2C[C@H]1O)[C@H](Cc1ccccc1)C[C@H](O)CN1C(=O)N(Cc2cccc(F)c2)CC1Cc1ccccc1` (stereo not given in full): 3.2 nM. Turning to `Cc1cc(CN2CC(Cc3ccccc3)N(C[C@@H](O)C[C@@H](Cc3ccccc3)C(=O)NC3c4ccccc4C[C@H]3O)C2=O)cc(C)c1C` (stereo not given in full), affinity was put at a Ki of 100 nM.
